CN1COCN(Cc2cnc(Cl)s2)C1=N[N+](=O)[O-]
solubility (mole fraction)
Settings	278.15 K	283.15 K	288.15 K	293.15 K	298.15 K	303.15 K	308.15 K	313.15 K	318.15 K	323.15 K
in 1,4-dioxane	–	–	0.00242	0.00311	0.00395	0.00496	0.00626	0.00763	0.00958	0.0117
in DMAc	0.0654	0.0728	0.0802	0.0888	0.0976	0.107	0.118	0.129	0.14	0.152
in DMSO	–	–	0.0672	0.0776	0.0885	0.101	0.115	0.13	0.147	0.164
in acetonitrile	0.00675	0.00854	0.0106	0.0131	0.0161	0.0196	0.0238	0.0288	0.0349	0.0414
in water	7.29e-05	9.97e-05	0.000132	0.000182	0.000241	0.000322	0.000418	0.000538	0.000696	0.000885
